Key:
Rhipicephalus sanguineus = assay: Efficacy of spinosyn administered per os to dogs for treatment and control of Rhipicephalus sanguineus (tick comb counts); format: in vivo; conditions: oral daily dose increased from 2.5 to 5.0 mg/kg/day around day 30, days 37-50, FIG. 1
Excerpt: Efficacy of Spinosyn Administered per os, i.e. by Mouth, to Dogs for the Treatment and Control of Rhipicephalus sanguineus.
(§1) Methods: A pool of 40 dogs are to be screened before inclusion in this example by preliminarily infesting them with ˜100 unfed adult Ctenocephalidesfelis in order to produce a pool of dogs that can suitably sustain a reliable infestation rate of approximately 50% of live fleas over a 48-hour period. The dogs with the highest live flea counts are to be randomly allocated to 2 treatment groups (6 dogs per group) based on their pre-treatment flea counts from experimental infestations. The first treatment group is to be the control group and the second treatment group to be the test group.
(§2) The dogs are to be housed individually during the study period and are to be fed a commercial dry dog food ration with ad libitum access to water.
(§3) Each dog in the test group is to receive by mouth a liquid formulation of spinosyn preferably spinosad. The dosage of 2.5 mg/kg of the dog's weight is to be administered to the dogs on each of days 0-29 and the dosage of 5 mg/kg of the dog's weight is to be administered on days 30-50.
Dogs in the control group are not to receive spinosyn or any other tick control treatment. […]
Results: Referring now to FIG. 1. […] Percent Efficacy is determined according to the formula [AM ticks CONTROL−AM ticks TREATED]/AM ticks Control. […]

[1] = Average plasma concentration of spinosad in dogs after oral dosing; format: in vivo
Excerpt: as §1, §2, §3
Dogs in the control group are not to receive spinosyn or any other tick control treatment. Each dog in the test group is to be offered its daily ration (dry food) and the individual doses of liquid formulation are to be administered after the individual dog has eaten at least 25% of its total daily ration. After receiving the dose of spinosyn the dogs are to be allowed to continue eating. This mimics incorporating the spinosyn in feed. Each dog in the test group and the control group is to be experimentally infested with 50 unfed adult ticks (ca. 50% male/50% female) on test days 12, 19, 28, 35, 42, 49 and 56. Comb counts for attached live and moribund adult ticks are to be conducted on days 14, 21, 30, 37, 44, 51 and 58. Note that the dosage is to be increased at day 30 and the final dose is to be given on day 50.
Using the same study method as described above, blood is to be drawn at 72, 120, 168, 336, 504, 720 and 888 hours after the initial dose of spinosyn is administered. The average concentration of spinosyn in the blood for different dosage levels can then be determined.
Referring now to TABLE 1 and FIG. 2. Sample results are shown for the average plasma concentration of spinosad in a canine's blood (ng/mL) versus time in hours for different dosage levels of spinosad. By way of comparison, the average plasma concentration of spinosyn for a single-dose administration to be given monthly (squares) is shown with the average plasma concentration of spinosyn for a substantially daily dose of 2.5 mg/kg/day or 5.0 mg/kg/day (circles). The daily dose is increased from 2.5 mg/kg/day to 5.0 mg/kg/day at about hour 700 (around day 30).

## spinosad
Rhipicephalus sanguineus
  Percent Efficacy (reduction in attached live and moribund adult tick counts vs control): increase in efficacy is clear
[1]; oral daily 2.5-5.0 mg/kg/day spinosad (2.5 mg/kg/day phase), 72 hours
  Average Plasma Concentration: 221.50 ng/mL
[1]; oral daily 2.5-5.0 mg/kg/day spinosad (2.5 mg/kg/day phase), 120 hours
  Average Plasma Concentration: 327.07 ng/mL
[1]; oral daily 2.5-5.0 mg/kg/day spinosad (2.5 mg/kg/day phase), 168 hours
  Average Plasma Concentration: 455.78 ng/mL
[1]; oral daily 2.5-5.0 mg/kg/day spinosad (2.5 mg/kg/day phase), 336 hours
  Average Plasma Concentration: 566.25 ng/mL
[1]; oral daily 2.5-5.0 mg/kg/day spinosad (2.5 mg/kg/day phase), 504 hours
  Average Plasma Concentration: 668.77 ng/mL
[1]; oral daily 2.5-5.0 mg/kg/day spinosad (5.0 mg/kg/day phase), 888 hours
  Average Plasma Concentration: 635.72 ng/mL
[1]; oral daily 2.5-5.0 mg/kg/day spinosad (5.0 mg/kg/day phase), 1056 hours
  Average Plasma Concentration: 967.33 ng/mL
[1]; oral daily 2.5-5.0 mg/kg/day spinosad (after final dose on day 50), 1392 hours
  Average Plasma Concentration: 761.45 ng/mL
[1]; oral daily 2.5-5.0 mg/kg/day spinosad (dose raised to 5.0 mg/kg/day at about hour 700), 720 hours
  Average Plasma Concentration: 533.12 ng/mL
